# From patent publication US10117431B2, “Compounds and methods for improving plant performance” (Los Alamos National Security, LLC, priority 2013, dated 2018)
# Experiments:
# Format in all cases: in vivo
# [1] = test system: Alfalfa (variety Ladak) seeds; test: Germination of treated alfalfa seeds on moist paper toweling; settings: 3 days after initiation of germination, 65-75° F., control untreated 80%
# Description: The desired treatment concentration of ketosuccinamate was added to an aqueous solution of 0.01% Tween 80 and the pH was set to neutral with KOH. The seeds were dipped in the solution to wet them and allowed to air dry before planting, a process that required less than 15 min. Alfalfa (variety Ladak) 3 days after initiation of germination on moist paper toweling at 65-75° F. the following percent germination was observed. Control untreated seeds: 80%, seeds treated with 0.1 mM ketosuccinamate: 88% and seeds treated with 1 mM ketosuccinamate: 93%. At least 30 seeds were used in each set.
# Alfalfa (Variety Ladak) = test: Greenhouse seedling emergence, alfalfa; settings: 1 mM seed treatment, 3 days after planting, control 58%
# Description: The desired treatment concentration of ketosuccinamate was added to an aqueous solution of 0.01% Tween 80 and the pH was set to neutral with KOH. The seeds were dipped in the solution to wet them and allowed to air dry before planting, a process that required less than 15 min. Seeds were planted in vermiculite, sand, peat moss (1:1:2) in the greenhouse and the seedling emergence was tracked. The temperature in the house ranged from 72-82° F. Sinorhizobium meliloti inoculum (commercial innoculum) was mixed into the substrate before planting. 3 days after planting, the following seedling emergence was observed. Control 58%; Ketosuccinamate (1 mM) treated 79%.
# [2] = test system: Soybeans (Variety Viking); test: Greenhouse seedling emergence, soybean; settings: 1 mM seed treatment, 3 days after planting, controls 12 of 20
# Description: The desired treatment concentration of ketosuccinamate was added to an aqueous solution of 0.01% Tween 80 and the pH was set to neutral with KOH. The seeds were dipped in the solution to wet them and allowed to air dry before planting, a process that required less than 15 min. Seeds were planted in vermiculite, sand, peat moss (1:1:1) in the greenhouse and the seedling emergence was tracked. The moisture in the germination/growth substrate as maintained between 15-20% of saturation. The temperature in the house ranged from 72-82° F. Bradyrhizobium japonicum (commercial innoculum) was mixed into the substrate before planting. 3 days after planting the following seedling emergence was observed. Controls 12 of 20 had emerged from the soil. Ketosuccinamate (1 mM) treated 16 of 20 had emerged.
# [3] = test system: Soybean (variety Viking) seeds; test: Germination of treated soybean seeds on moist paper toweling; settings: 10 mM seed treatment, 75-85° F.
# Description: The desired treatment concentration of ketosuccinamate was added to an aqueous solution of 0.01% Tween 80 and the pH was set to neutral with KOH. The seeds were dipped in the solution to wet them and allowed to air dry before planting, a process that required less than 15 min. Soybean (variety Viking) 22 hr after treatment and initiation of germination on moist paper toweling at 75-85° F. the following germination was observed. 2 of the 20 controls had broken through the pericarp whereas 9 of the 20 ketosuccinamate (10 mM) treated seeds had broken through the pericarp. 24 hours after treatment 6 of the 20 controls had broken the pericarp and 12 of the 20 ketosuccinamate-treated seeds had broken the pericarp.
structure (smiles),measurement,setting,value
"NC(=O)CC(=O)C(=O)O [ketosuccinamate, 4-amino-2,4-dioxobutanoic acid]",percent germination,[1]; seeds treated with 0.1 mM,88%
same,percent germination,[1]; seeds treated with 1 mM,93%
same,seedling emergence,Alfalfa (Variety Ladak),79%
same,"seedling emergence, number of 20 that had emerged from the soil",[2],16
same,number of the 20 treated seeds that had broken through the pericarp,"[3]; 22 hr after treatment, controls 2 of the 20",9
same,number of the 20 treated seeds that had broken the pericarp,"[3]; 24 hours after treatment, controls 6 of the 20",12
